Measured values as given in patent publication US20170143603A1, “PROCESS FOR SEMI-PERMANENT STRAIGHTENING OF CURLY, FRIZZY OR WAVY HAIR” (KAO CORPORATION, priority 2010, published 2017).

Assay: Hair straightening treatment, assessment in words of hair look and permanence
Design: species or system human
Description: Tests consisted in dissolving 10 grams of glyoxylic acid in 100 milliliters of water.
In particular, hair was washed with basic pH (7.5-8.5) shampoo, then said glyoxylic acid solution was applied (application can be made with hard bristle brush, spray or in any other way).
Hair was left in contact with the substance for 60 minute time (+/−30 minutes) and then dried with the hairdryer.
Once dried, hair was straightened with hair straightening iron heated at average temperature of approximately 200°C., +/−50° C.
Finally, hair was rinsed again with water or washed again with shampoo and dried.
Each substance was tested in a mixture with such glyoxylic acid solution by adding 10 grams of one of the substances listed in table 2 to 100 milliliters of said solution.
In particular, a hair straightening test was carried out using the formulation of a cosmetic product by INOAR Cosmeticos Ltda of San Paulo, Brazil, known as “Tratamento capillar marroquino”. The product was deprived of its active ingredient for hair straightening.
10 grams of glyoxylic acid were added to 100 milliliters of said cosmetic and, after carrying out the same hair treatment operations illustrated in the foregoing pages, the results were identical to the ones achieved using the same percentage ratio of glyoxylic acid in water.

O=CC(=O)O [glyoxylic acid, Glyoxylic acid]
hair condition at the end of treatment (10 grams of glyoxylic acid in 100 milliliters of cosmetic “Tratamento capillar marroquino” deprived of its active ingredient): permanently shiny, straight, volumeless, and soft to touch
hair condition at the end of treatment (10 grams of glyoxylic acid in 100 milliliters of water, 60 minute contact, iron approximately 200°C.): shiny, straight, volumeless, soft to touch, and especially pleasant
efficacy of treatment maintained over time (washings, rinsings and dryings in normal use conditions of hair shampoo): at least six washings, rinsings and dryings
result compared with the other buffering agents of the European list (within the process of the invention): best results
